Laboratory results published in publication PMC12892976, “Alkylation-based optimization of antifungal FPPS inhibitors yields a potent, broad-spectrum lipophilic zoledronate derivative” (mBio, 2025).
Values after ≈ are worked out from the molar mass of the structure shown. Like-named read-outs stand apart in the source and are kept apart here.

What was measured:
[1] = tested on: Cryptococcus neoformans; experiment: checkerboard drug interaction (FICI, MICc);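 also: antifungal plus FPPS inhibitor pairs tested against Cryptococcus neoformans by simplified diagonal checkerboard screening, FICI computed under the Loewe additivity model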; assay type: cell-based; settings: C. neoformans; KET:INH combination; fold decrease of inhibitor MIC
Experimental: (§1) Drug interactions between antifungals and FPPS inhibitors were investigated using a simplified checkerboard diagonal screening method ([45]). […] FICIs were determined according to the Loewe additivity model ([17]).

[2] = tested on: HEK-293T cells; experiment: MTT reduction cytotoxicity assay; assay type: cell-based; settings: Homo sapiens, HEK-293T, 72 h, MTT, 72 h
[3] = tested on: Aspergillus fumigatus; experiment: checkerboard drug interaction (FICI, MICc); assay type: cell-based;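 also: simplified diagonal checkerboard screen pairing antifungals with FPPS inhibitors against Aspergillus fumigatus, with FICI calculated under the Loewe additivity model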
Experimental: as §1

[4] = tested on: Cryptococcus neoformans; experiment: MIC/MFC broth microdilution (CLSI); settings: Cryptococcus neoformans;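 also: susceptibility testing followed the CLSI M27-Ed4 broth microdilution document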
Experimental: (§2) Antifungal susceptibility was determined by broth microdilution according to the CLSI guidelines described in M27-Ed4 ([16]). […] MFC was determined by back-plating drug-treated cultures from MIC broths onto SDA plates. The MFC was defined as the lowest concentration from which no colonies could be cultured.

[5] = tested on: eight fungal species; experiment: checkerboard interaction with azoles, summary across the eight species; assay type: cell-based; settings: geometric mean MIC in combination with azoles
Source text: Synergy between lipophilic FPPS inhibitors and azole antifungals was investigated by determining the fractional inhibitory concentration index (FICI) (Fig. 2; Table S1 Fig. S1) ([17]). […]. Derivatives PLA9 and 11, and PDA9, 11, and 12 antagonized azoles in C. albicans, C. neoformans, and C. deuterogattii, yet were largely synergistic in C. glabrata and S. cerevisiae. […].

[6] = tested on: Cryptococcus deuterogattii; experiment: checkerboard drug interaction (FICI, MICc);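 as to all read-outs here: simplified diagonal checkerboard screen pairing antifungal drugs with FPPS inhibitors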; assay type: cell-based; settings: C. deuterogattii; for INH FD (MIC-MICc fold decrease): fold decrease of inhibitor MIC
Experimental: as §1

[7] = tested on: Aspergillus flavus; experiment: checkerboard drug interaction (FICI, MICc);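 also: simplified diagonal checkerboard screen pairing azole antifungals with FPPS inhibitors, FICI calculated under the Loewe additivity model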; assay type: cell-based; design: INH MICc (KET:INH) / INH MICc (FLC:INH): unit not given beside the values; settings: A. flavus
[8] = tested on: Candida glabrata; experiment: checkerboard drug interaction (FICI, MICc);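 as to all read-outs here: simplified diagonal checkerboard screen pairing antifungals with FPPS inhibitors, FICI calculated under the Loewe additivity model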; assay type: cell-based; settings: C. glabrata; for INH FD (MIC-MICc fold decrease): fold decrease of inhibitor MIC
Experimental: as §1

[9] = tested on: Saccharomyces cerevisiae; experiment: MIC/MFC broth microdilution (CLSI); assay type: cell-based; settings: Saccharomyces cerevisiae S288c
Experimental: as §2

[10] = tested on: eight fungal species; experiment: MIC/MFC summary across the eight fungal species of Table 1; assay type: cell-based
Experimental: The antifungal activity of these compounds was evaluated according to CLSI guidelines ([16]).

[11] = Fractional Inhibitory Concentration Index, fluconazole + inhibitor
[12] = Fractional Inhibitory Concentration Index, itraconazole + inhibitor
[13] = Fractional Inhibitory Concentration Index, ketoconazole + inhibitor
[14] = MIC of the inhibitor in combination with fluconazole
[15] = MIC of the inhibitor in combination with itraconazole
[16] = MIC of the inhibitor in combination with ketoconazole
[17] = MIC-MICc fold decrease of fluconazole, negative = increase
[18] = MIC-MICc fold decrease of itraconazole, negative = increase
[19] = MIC-MICc fold decrease of ketoconazole, negative = increase
[20] = MIC-MICc fold decrease of the inhibitor, with fluconazole
[21] = MIC-MICc fold decrease of the inhibitor, with itraconazole
[22] = MIC-MICc fold decrease of the inhibitor, with ketoconazole
[23] = FLC:INH combination, MIC of the inhibitor in combination with FLC
[24] = FLC:INH combination, fold decrease of FLC MIC
[25] = ITR:INH combination, MIC of the inhibitor in combination with ITR
[26] = ITR:INH combination, fold decrease of ITR MIC
[27] = KET:INH combination, MIC of the inhibitor in combination with KET
[28] = KET:INH combination, fold decrease of KET MIC

CCCCCCCCCCCN1CCC[C@H]1C(=O)N[C@H](CC(=O)OC)C(=O)OC [dmPDA11]
INH FD (MIC-MICc fold decrease) [1]: 1
IC50 ([2]; HEK-293T cells, read-out: IC50): 6.19 µg/mL (≈ 15 µM)
IC50 ([2]; read-out: HEK IC50): 6.19 µg/mL (≈ 15 µM)
FICI (FLC:INH) [3, 11]: 1.25
FICI (ITR:INH) [3, 12]: 0.53
FICI (KET:INH) [3, 13]: 3
INH MICc (FLC:INH) [3, 14]: 64
INH MICc (ITR:INH) [3, 15]: 2
INH MICc (KET:INH) [3, 16]: 128
FLC FD (FLC:INH) [3, 17]: 4
ITR FD (ITR:INH) [3, 18]: 2
KET FD (KET:INH) [3, 19]: 1
INH FD (FLC:INH) [3, 20]: 1
INH FD (ITR:INH) [3, 21]: 32
INH FD (KET:INH) [3, 22]: -2
MFC [4]: 32 µg/mL (≈ 77.6 µM)
MIC [4]: 16 µg/mL (≈ 38.8 µM)
GM fungal MICc [5]: 25.4
FICI ([6]; FLC:INH combination): 1.5
INH MICc [6, 23]: 32
FLC FD (MIC-MICc fold decrease) [6, 24]: 2
INH FD (MIC-MICc fold decrease) ([6]; FLC:INH combination): 1
FICI ([6]; ITR:INH combination): 2
INH MICc [6, 25]: 32
ITR FD (MIC-MICc fold decrease) [6, 26]: 1
INH FD (MIC-MICc fold decrease) ([6]; ITR:INH combination): 1
FICI ([6]; KET:INH combination): 1.13
INH MICc [6, 27]: 32
KET FD (MIC-MICc fold decrease) [6, 28]: 8
INH FD (MIC-MICc fold decrease) ([6]; KET:INH combination): 1
FICI (FLC:INH) [7, 11]: 0.75
FICI (ITR:INH) [7, 12]: 1.01
FICI (KET:INH) [7, 13]: 0.31
INH MICc (FLC:INH) [7, 14]: 64
INH MICc (ITR:INH) [7, 15]: 2
INH MICc (KET:INH) [7, 16]: 16
FLC FD (FLC:INH) [7, 17]: 2
ITR FD (ITR:INH) [7, 18]: 1
KET FD (KET:INH) [7, 19]: 4
INH FD (FLC:INH) [7, 20]: 4
INH FD (ITR:INH) [7, 21]: 128
INH FD (KET:INH) [7, 22]: 16
FICI ([8]; FLC:INH combination): ≥4
INH MICc [8, 23]: 32
FLC FD (MIC-MICc fold decrease) [8, 24]: -2
INH FD (MIC-MICc fold decrease) ([8]; FLC:INH combination): 1
FICI ([8]; ITR:INH combination): 1
INH MICc [8, 25]: 4
ITR FD (MIC-MICc fold decrease) [8, 26]: 2
INH FD (MIC-MICc fold decrease) ([8]; ITR:INH combination): 8
FICI ([8]; KET:INH combination): 2
INH MICc [8, 27]: 8
KET FD (MIC-MICc fold decrease) [8, 28]: 1
INH FD (MIC-MICc fold decrease) ([8]; KET:INH combination): 4
MFC [9]: 128 µg/mL (≈ 310 µM)
MIC [9]: 64 µg/mL (≈ 155 µM)
MFC ([10]; across eight species, read-out: Geometric mean MFC): 140 µg/mL (≈ 338 µM)
MIC ([10]; geometric mean across eight species, read-out: GM fungal MIC): 69.8 µg/mL (≈ 169 µM)
MIC ([10]; read-out: Geometric mean MIC): 69.8 µg/mL (≈ 169 µM)
